The text below walks through data of ChEMBL document CHEMBL1144872, “A quantitative structure-activity relationship and pharmacophore modeling investigation of aryl-X and heterocyclic bisphosphonates as bone resorption agents” (J Med Chem, 2003).

Usually IC50 stands for the concentration that inhibits the measured activity by half. Higher therefore signals weaker potency in that assay.

The assay has as its target bone resorption (Rattus norvegicus).
`O=P(O)(O)C(O)(CCNCCCSc1ccccc1)P(=O)(O)O` gave an IC50 of 18.2 nM.

As to `CCCc1cnc(NC(P(=O)(O)O)P(=O)(O)O)s1`, inhibition was half-maximal at 6.15 nM (IC50). Against the preceding compound, the IC50 is about 3-fold lower.

As for `Cc1cnc(NC(P(=O)(O)O)P(=O)(O)O)s1`, the IC50 was 5.13 nM.

The compound `O=P(O)(O)C(Nc1ncc[nH]1)P(=O)(O)O` had an IC50 of 1950 nM.

`CN(CCCSc1ccccc1)CCC(O)(P(=O)(O)O)P(=O)(O)O` showed an IC50 of 0.618 nM. This IC50 is about 3200-fold lower than that of the compound before.

`CCc1cnc(NC(P(=O)(O)O)P(=O)(O)O)s1` had an IC50 of 4.82 nM.

On to `O=P(O)(O)C(Nc1nccs1)P(=O)(O)O`, for which the IC50 is 18.2 nM.

In turn, `Cc1cccc(OCCCN(C)CCC(O)(P(=O)(O)O)P(=O)(O)O)c1` gave an IC50 of 4.27 nM. Against the preceding compound, the IC50 is about 4.3-fold lower.

The compound `Cn1ccnc1CC(O)(P(=O)(O)O)P(=O)(O)O` had an IC50 of 1.97 nM.

`CN(CCCc1ccc(Cl)cc1)CCC(O)(P(=O)(O)O)P(=O)(O)O` had an IC50 of 1.66 nM.

For the compound `CN(CCCOc1ccc(Cl)cc1)CCC(O)(P(=O)(O)O)P(=O)(O)O`, the IC50 is 3.12 nM.

In turn, `CN(CCCOc1ccc(F)cc1)CCC(O)(P(=O)(O)O)P(=O)(O)O` showed an IC50 of 1.45 nM.

`O=P(O)(O)C(Nc1ncc(CCc2ccccc2)s1)P(=O)(O)O`: the IC50 was 7.08 nM.

Compound `O=P(O)(O)C(O)(CCn1ccnc1)P(=O)(O)O` showed an IC50 of 157 nM. Compared with the last compound, the IC50 is about 22-fold higher.

Turning to `CN(CCCOc1ccccc1)CCCC(O)(P(=O)(O)O)P(=O)(O)O`, the IC50 is 246 nM. Against the preceding compound, the IC50 is about 1.6-fold higher.

In turn, `CCN(CCCOc1ccccc1)CCC(O)(P(=O)(O)O)P(=O)(O)O` displayed an IC50 of 72.1 nM. Compared with the last compound, the IC50 is about 3.4-fold lower.

Turning to `CN(CCCOc1ccccc1)CCC(O)(P(=O)(O)O)P(=O)(O)O`, 1.29 nM corresponded to half-maximal inhibition (IC50). This IC50 is about 56-fold lower than that of the compound before.

In the case of `CN(CCCSc1ccc(Cl)cc1)CCC(O)(P(=O)(O)O)P(=O)(O)O`, the half-inhibitory concentration (IC50) is 18 nM.

As for `O=P(O)(O)C(O)(CCNCCCc1ccccc1)P(=O)(O)O`, the IC50 was 55.8 nM. Against the preceding compound, the IC50 is about 3.1-fold higher.

With `Cc1csc(NC(P(=O)(O)O)P(=O)(O)O)n1`, it took 347 nM to reach half-maximal inhibition (IC50). Against the preceding compound, the IC50 is about 6.2-fold higher.

The compound `CN(CCc1ccccc1)CCC(O)(P(=O)(O)O)P(=O)(O)O` had an IC50 of 3.92 nM.

Compound `CN(CCCCOc1ccccc1)CCC(O)(P(=O)(O)O)P(=O)(O)O` gave an IC50 of 10.1 nM.

In the case of `O=P(O)(O)C(O)(CCNCCCOc1ccccc1)P(=O)(O)O`, inhibition was half-maximal at 3.25 nM (IC50).

In turn, `COc1ccc(OCCCN(C)CCC(O)(P(=O)(O)O)P(=O)(O)O)cc1` gave an IC50 of 2.82 nM.

With `CN(CCCCCCc1ccccc1)CCC(O)(P(=O)(O)O)P(=O)(O)O`, 3630 nM corresponded to half-maximal inhibition (IC50).

Regarding `Cc1nc[nH]c1CC(O)(P(=O)(O)O)P(=O)(O)O`, the IC50 is 5.13 nM.

Compound `O=P(O)(O)C(Nc1nccn1Cc1ccccc1)P(=O)(O)O` showed an IC50 of 185 nM.

`CCCN(CCCOc1ccccc1)CCC(O)(P(=O)(O)O)P(=O)(O)O` gave an IC50 of 24 nM. Compared with the last compound, the IC50 is about 7.7-fold lower.

Regarding `CN(CCOc1ccc(Cl)cc1)CCC(O)(P(=O)(O)O)P(=O)(O)O`, the IC50 is 4.07 nM. This IC50 is about 5.9-fold lower than that of the compound before.

On to `Cn1ccnc1NC(P(=O)(O)O)P(=O)(O)O`, for which the midpoint of inhibition, the IC50, lay at 18.5 nM.

`CN(CCCCCCOc1ccccc1)CCC(O)(P(=O)(O)O)P(=O)(O)O` showed an IC50 of 17600 nM.

For `CN(CCCc1ccccc1)CCC(O)(P(=O)(O)O)P(=O)(O)O`, the IC50 was 2.59 nM. Against the preceding compound, the IC50 is about 6800-fold lower.

For `O=P(O)(O)C(O)(CCNCCCCc1ccccc1)P(=O)(O)O`, it took 2.69 nM to reach half-maximal inhibition (IC50).

Compound `O=P(O)(O)C(O)(Cc1ncc[nH]1)P(=O)(O)O` gave an IC50 of 17.8 nM.

For `CCCCN(CCCOc1ccccc1)CCC(O)(P(=O)(O)O)P(=O)(O)O`, inhibition was half-maximal at 1170 nM (IC50).

`CC(C)c1cnc(NC(P(=O)(O)O)P(=O)(O)O)s1` showed an IC50 of 632 nM. This IC50 lies about 1.9-fold lower than the previous one.

Compound `O=P(O)(O)C(O)(CCNCCc1ccccc1)P(=O)(O)O` had an IC50 of 885 nM.

In turn, `O=P(O)(O)C(O)(CCc1cnc[nH]1)P(=O)(O)O` showed an IC50 of 66.7 nM.

The compound `CCCCc1cnc(NC(P(=O)(O)O)P(=O)(O)O)s1` had an IC50 of 2.69 nM. This IC50 is about 25-fold lower than that of the compound before.

Turning to `O=P(O)(O)C(Cc1nccs1)P(=O)(O)O`, the midpoint of inhibition, the IC50, lay at 733 nM.

Compound `Cc1ncn(CC(O)(P(=O)(O)O)P(=O)(O)O)c1C` showed an IC50 of 5 nM.

Consider `O=C(c1ccccc1)n1ccnc1CC(O)(P(=O)(O)O)P(=O)(O)O`, for which the midpoint of inhibition, the IC50, lay at 64.6 nM.

Compound `O=P(O)(O)C(O)(Cn1cncn1)P(=O)(O)O` showed an IC50 of 2200 nM.
